Measurements: patent EP4810483A1, “6- AND 5-HETEROARYL DERIVATIVES AND USE THEREOF” (CMS Research & Development Pte. Ltd., priority 2023, dated 2025)

Assays:
[1] = target: T1, hKCNQ2/3 (Homo sapiens, UniProt O43525+O43526); assay: cell-based
T1 construct: expressed in transfected cells; host or cells: CHO
Text: Test Method 1: hKCNQ2/3 Thallium Flux Assay
Test Objective: To test the in vitro concentration-response relationship of compounds using FLIPR thallium flux assay in CHO cell lines stably expressing hKCNQ2/3.
According to the split ratio, the cells were transferred to another T-75 flask containing complete cell growth medium. Note: To maintain logarithmic growth, the cells should be kept in a subconfluent monolayer state. Based on the cell doubling time, the cells were passaged every 2-3 days.
• (1) Day 1 - Cell preparation: Cells were digested as described above, and cell density and viability were determined using a Cell Countess. The volume of the single-cell suspension was adjusted with complete cell growth medium. Then, hKCNQ2/3_CHO cells were seeded onto PDL-precoated 384-well plates at a density of approximately 20,000 cells/well (30 µL/well). The plates were then incubated overnight in a 37°C, 5% CO2 humidified air incubator. • (2) Day 2 - Compound preparation: Test compounds were diluted with dimethyl sulfoxide (DMSO) to stock concentrations and stored in a -20°C freezer. A compound addition program was set up on the ECHO liquid handler, and compounds were added to the plates using the ECHO liquid handler. Retigabine (RTG) was used as a positive control at a highest concentration of 100 µM with 3-fold serial dilutions for a total of 9 doses. Buffer containing 5 mM K^+ and 1 mM Tl^+ was added to the plates. Notes: 1) K2SO4 and Tl2SO4 were prepared in 1× chloride-free buffer. Depending on the voltage-gated potassium channel involved, the concentrations of Tl^+ and K^+ should be adjusted. Tl^+ concentration is approximately 0.5-5 mM, and K^+ concentration is approximately 5-30 mM. 2) Each 1 mM solution of K2SO4 and Tl2SO4 contains 2 mM K^+ and Tl^+; the final concentration should be calculated based on the ion concentration. 3) TlCl readily precipitates and a chloride-free buffer is required. • (3) Day 2 -Assay testing: Once the cells reached the desired confluence, the cell assay plates were removed from the incubator. Assay buffer and diluted Tl^+ dye (Molecular Devices # R8222) were prepared. The medium was discarded using a Bravo liquid handler, and 25 µL of Tl^+ dye was added to each well. After 1 hour of incubation, the cell assay plates, composite plates and FLIPR tips were placed in the FLIPR^TETRA (Molecular Devices, USA) for FLIPR detection. After setting up the tips, baseline readings were taken for 60 seconds, then 12.5 µL was added from the composite plate (3×) to the cell assay plate, and data were recorded for at least 5 minutes. • (4) Data processing: Maximum signals were generated by the FLIPR software. […] Data quality control: S/B > 2.00, Z factor > 0.50.
• (1) Day 1 - Cell preparation: Cells were digested as described above, and cell density and viability were determined using a Cell Countess. The volume of the single-cell suspension was adjusted with complete cell growth medium. Then, hKCNQ2/3_CHO cells were seeded onto PDL-precoated 384-well plates at a density of approximately 20,000 cells/well (30 µL/well). The plates were then incubated overnight in a 37°C, 5% CO2 humidified air incubator. • (2) Day 2 - Compound preparation: Test compounds were diluted with dimethyl sulfoxide (DMSO) to stock concentrations and stored in a -20°C freezer. A compound addition program was set up on the ECHO liquid handler, and compounds were added to the plates using the ECHO liquid handler. Retigabine (RTG) was used as a positive control at a highest concentration of 100 µM with 3-fold serial dilutions for a total of 9 doses. Buffer containing 5 mM K^+ and 1 mM Tl^+ was added to the plates. Notes: 1) K2SO4 and Tl2SO4 were prepared in 1× chloride-free buffer. Depending on the voltage-gated potassium channel involved, the concentrations of Tl^+ and K^+ should be adjusted. Tl^+ concentration is approximately 0.5 mM -5 mM, and K^+ concentration is approximately 5 mM -30 mM.

[2] = target: T2, CYP1A2 (Homo sapiens, UniProt P05177); assay: Drug-drug interaction evaluation: CYP inhibition in human liver microsomes (cocktail method)
T2 sequence (P05177 1-516): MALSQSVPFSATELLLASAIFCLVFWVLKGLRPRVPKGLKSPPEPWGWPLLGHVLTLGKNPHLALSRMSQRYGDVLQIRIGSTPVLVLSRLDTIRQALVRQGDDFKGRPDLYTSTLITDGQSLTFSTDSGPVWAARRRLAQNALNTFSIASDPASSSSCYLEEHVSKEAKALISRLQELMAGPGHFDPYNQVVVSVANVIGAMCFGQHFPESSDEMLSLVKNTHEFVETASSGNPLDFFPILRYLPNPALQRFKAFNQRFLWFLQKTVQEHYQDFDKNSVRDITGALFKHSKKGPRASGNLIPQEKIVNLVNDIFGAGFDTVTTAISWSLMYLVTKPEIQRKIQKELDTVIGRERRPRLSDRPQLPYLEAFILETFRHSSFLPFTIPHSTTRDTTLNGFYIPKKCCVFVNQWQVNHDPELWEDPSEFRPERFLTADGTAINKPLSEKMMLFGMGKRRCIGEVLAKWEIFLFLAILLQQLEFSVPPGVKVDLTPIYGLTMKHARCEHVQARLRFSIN
Protocol: (§1) The cocktail method using specific probe substrates for CYP1A2, CYP2C9, CYP2C19, CYP2D6 and CYP3A was used to evaluate the inhibitory effect of the compounds on the activity of human liver microsomal cytochrome P450 isoenzymes (CYP1A2, CYP2C9, CYP2C19, CYP2D6 and CYP3A).
(§2) Human liver microsomes, probe substrates, positive control inhibitors, and reduced nicotinamide adenine dinucleotide phosphate (NADPH).
(§3) To the corresponding wells of a reaction plate, 20 µL of substrate solution was added; to blank wells, 20 µL of potassium phosphate buffer was added.
(§4) To the corresponding wells, 2 µL of test compound and positive control working solution were added; to inhibitor-free and blank wells, 2 µL of solvent was added.
(§5) Human liver microsome working solution was prepared, and 158 µL of human liver microsome working solution was added to each well of the reaction plate.
(§6) The plate was pre-incubated at 37.0°C for 10 minutes.
(§7) To start the reaction, 20 µL of NADPH cofactor working solution was added to the reaction plate.
(§8) After incubation in a 37.0°C water bath with mixing for 10 minutes, 400 µL of stop solution was added to terminate the reaction.
(§9) The sample plate was centrifuged at 4000 rpm for 20 minutes.
(§10) 200 µL of supernatant was taken and mixed with 100 µL of pure water as diluent, and the plate was shaken to mix well.
(§11) Analysis was performed by liquid chromatography-tandem mass spectrometry (LC-MS/MS).
(§12) Using the percentage of remaining activity as the ordinate and the test compound concentration as the abscissa, a non-linear regression analysis was performed with a three-parameter or four-parameter model using XL fit software to calculate the IC50 value.
(§13) y = (max)/(1 + (((x)/(IC50)))^−hillslope) [formula]
(§14) y = min + (max−min)/(1 + (((x)/(IC50)))^−hillslope) [formula]
(§15) max = maximum enzyme activity; min = minimum enzyme activity; x = concentration of test compound or positive control inhibitor; y = enzyme activity at the corresponding concentration; hillslope = slope; IC50 = half-maximal inhibitory concentration. The four-parameter equation was used when the minimum enzyme activity was within ±10%; otherwise the three-parameter equation was used.

[3] = target: CYP2C19 (Homo sapiens, UniProt P33261); assay: as above
Protocol: as §1, §2, §3, §4, §5, §6, §7, §8, §9, §10, §11, §12, §13, §14, §15

[4] = target: CYP2C9 (Homo sapiens, UniProt P11712); assay: as above
Protocol: as §1, §2, §3, §4, §5, §6, §7, §8, §9, §10, §11, §12, §13, §14, §15

[5] = target: CYP2D6 (Homo sapiens, UniProt P10635); assay: as above
Protocol: as §1, §2, §3, §4, §5, §6, §7, §8, §9, §10, §11, §12, §13, §14, §15

[6] = target: CYP3A4 (Homo sapiens, UniProt P08684); assay: as above
Protocol: as §1, §2, §3, §4, §5, §6, §7, §8, §9, §10, §11, §12, §13, §14, §15

[7] = tested on: maximal electroshock-induced epilepsy model; assay: Maximal electroshock-induced epilepsy model, behavioral pharmacodynamics; assay type: in vivo; settings: dose 5 mg/kg, oral, one hour before electrical stimulation; male CD-1 mice
Text: Assay Example 2: Evaluation of the behavioral pharmacodynamics of the test compounds in a maximal electroshock-induced epilepsy model
This study used behavioral tests in male CD-1 mice to investigate the effects of test compounds on acute epileptic seizures behavior induced by maximal electroshock.
Male CD-1 mice (25 to 35g) were used as the experimental animals and fed with standard feed (Beijing Vital River Laboratory Animal Technology Co., Ltd.).
After arriving at the animal facility, the experimental animals needed to acclimatize for at least one week. The mice were observed daily for vital signs, and randomly divided into groups according to their body weights one day before the drug administration. One hour before the electrical stimulation, different dosages of the test compound were orally administered to each group. On the day of the assay, the male CD-1 mice in each group were anesthetized locally at the cornea with 2% lidocaine. Then, silver bipolar electrodes were used to electrically stimulate the cornea of the mice with 18 mA, 60 Hz, a pulse width of 0.6 ms, and a stimulation time of 1 s to induce seizures. Subsequently, the latency of seizures and the duration of limb rigidity in mice after the electrical stimulation were observed, and the protection rate from seizures for each group was statistically analyzed.

Sequence of CYP2C19 (P33261 whole entry): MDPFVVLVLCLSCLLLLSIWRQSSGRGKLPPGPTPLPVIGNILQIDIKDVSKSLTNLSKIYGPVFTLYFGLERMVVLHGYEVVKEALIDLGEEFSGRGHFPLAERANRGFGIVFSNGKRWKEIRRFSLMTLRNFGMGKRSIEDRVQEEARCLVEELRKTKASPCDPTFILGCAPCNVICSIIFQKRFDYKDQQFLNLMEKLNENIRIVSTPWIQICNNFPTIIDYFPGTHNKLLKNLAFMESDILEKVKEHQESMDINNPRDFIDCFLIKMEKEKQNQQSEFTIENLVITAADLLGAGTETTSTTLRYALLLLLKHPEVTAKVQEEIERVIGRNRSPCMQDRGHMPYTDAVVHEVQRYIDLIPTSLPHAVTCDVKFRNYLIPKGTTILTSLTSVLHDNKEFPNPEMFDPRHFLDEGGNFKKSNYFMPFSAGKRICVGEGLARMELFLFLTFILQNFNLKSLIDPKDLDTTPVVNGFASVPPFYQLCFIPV
Sequence of CYP2D6 (P10635 whole entry): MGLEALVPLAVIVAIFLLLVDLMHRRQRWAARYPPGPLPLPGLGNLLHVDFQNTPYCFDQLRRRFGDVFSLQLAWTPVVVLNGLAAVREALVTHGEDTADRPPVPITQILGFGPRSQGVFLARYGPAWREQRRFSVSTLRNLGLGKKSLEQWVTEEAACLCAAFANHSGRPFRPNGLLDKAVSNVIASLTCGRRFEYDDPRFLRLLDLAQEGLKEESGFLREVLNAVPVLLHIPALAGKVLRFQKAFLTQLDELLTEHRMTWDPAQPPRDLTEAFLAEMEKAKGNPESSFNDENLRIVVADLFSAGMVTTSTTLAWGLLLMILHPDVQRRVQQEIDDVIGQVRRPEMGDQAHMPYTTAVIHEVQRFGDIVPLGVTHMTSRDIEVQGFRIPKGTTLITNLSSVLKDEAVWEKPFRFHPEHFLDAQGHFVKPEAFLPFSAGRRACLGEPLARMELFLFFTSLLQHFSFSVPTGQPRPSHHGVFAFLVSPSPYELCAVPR
Sequence of CYP2C9 (P11712 whole entry): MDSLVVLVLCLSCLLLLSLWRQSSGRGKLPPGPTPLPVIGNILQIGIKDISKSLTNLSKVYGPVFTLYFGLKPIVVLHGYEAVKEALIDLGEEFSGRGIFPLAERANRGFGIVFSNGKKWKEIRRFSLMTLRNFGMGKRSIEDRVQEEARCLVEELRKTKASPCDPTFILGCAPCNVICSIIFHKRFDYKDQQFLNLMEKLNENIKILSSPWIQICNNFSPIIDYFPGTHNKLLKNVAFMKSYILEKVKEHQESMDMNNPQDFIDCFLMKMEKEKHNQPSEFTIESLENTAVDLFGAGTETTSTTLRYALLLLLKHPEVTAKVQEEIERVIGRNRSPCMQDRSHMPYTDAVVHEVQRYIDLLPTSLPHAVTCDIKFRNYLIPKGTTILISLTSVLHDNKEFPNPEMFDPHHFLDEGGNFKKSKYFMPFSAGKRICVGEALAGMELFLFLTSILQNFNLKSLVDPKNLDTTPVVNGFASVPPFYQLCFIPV
Sequence of CYP3A4 (P08684 2-503): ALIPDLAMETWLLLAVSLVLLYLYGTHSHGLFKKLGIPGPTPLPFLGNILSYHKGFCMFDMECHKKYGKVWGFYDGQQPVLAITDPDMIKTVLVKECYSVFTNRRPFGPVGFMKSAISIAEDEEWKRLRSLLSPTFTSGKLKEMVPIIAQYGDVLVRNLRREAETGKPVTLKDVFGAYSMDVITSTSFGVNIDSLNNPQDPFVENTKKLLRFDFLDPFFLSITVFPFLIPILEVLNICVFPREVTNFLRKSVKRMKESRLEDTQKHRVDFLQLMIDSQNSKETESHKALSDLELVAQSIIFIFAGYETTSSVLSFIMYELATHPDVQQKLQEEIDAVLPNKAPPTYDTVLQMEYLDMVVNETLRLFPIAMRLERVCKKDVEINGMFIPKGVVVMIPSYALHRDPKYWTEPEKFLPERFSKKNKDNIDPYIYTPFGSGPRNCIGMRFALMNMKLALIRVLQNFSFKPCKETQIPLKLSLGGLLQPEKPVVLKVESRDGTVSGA
T1 sequence (O43526 whole entry): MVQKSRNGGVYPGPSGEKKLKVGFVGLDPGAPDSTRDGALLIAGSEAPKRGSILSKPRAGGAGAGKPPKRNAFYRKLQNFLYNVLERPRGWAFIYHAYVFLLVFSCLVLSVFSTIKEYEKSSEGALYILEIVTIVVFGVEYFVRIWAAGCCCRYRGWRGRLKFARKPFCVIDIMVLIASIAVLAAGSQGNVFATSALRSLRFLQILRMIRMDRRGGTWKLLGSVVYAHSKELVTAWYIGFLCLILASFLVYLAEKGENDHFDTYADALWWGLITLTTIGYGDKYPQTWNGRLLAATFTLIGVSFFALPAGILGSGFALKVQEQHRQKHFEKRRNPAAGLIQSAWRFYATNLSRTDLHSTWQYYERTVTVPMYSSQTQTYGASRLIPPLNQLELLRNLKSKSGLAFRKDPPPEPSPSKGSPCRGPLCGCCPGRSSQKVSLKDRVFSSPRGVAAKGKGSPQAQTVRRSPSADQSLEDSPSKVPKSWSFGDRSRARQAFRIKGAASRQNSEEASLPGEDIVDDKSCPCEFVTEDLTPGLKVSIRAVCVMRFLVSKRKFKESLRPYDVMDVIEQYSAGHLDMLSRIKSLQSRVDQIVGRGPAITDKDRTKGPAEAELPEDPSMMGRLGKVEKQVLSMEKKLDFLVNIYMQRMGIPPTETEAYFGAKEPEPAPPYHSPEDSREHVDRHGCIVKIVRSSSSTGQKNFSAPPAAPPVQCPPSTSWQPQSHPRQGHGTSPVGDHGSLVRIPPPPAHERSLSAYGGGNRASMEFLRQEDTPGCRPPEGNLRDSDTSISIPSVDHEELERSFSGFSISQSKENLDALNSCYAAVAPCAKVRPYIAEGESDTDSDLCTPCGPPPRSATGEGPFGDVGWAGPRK
T1 sequence (O43525 whole entry): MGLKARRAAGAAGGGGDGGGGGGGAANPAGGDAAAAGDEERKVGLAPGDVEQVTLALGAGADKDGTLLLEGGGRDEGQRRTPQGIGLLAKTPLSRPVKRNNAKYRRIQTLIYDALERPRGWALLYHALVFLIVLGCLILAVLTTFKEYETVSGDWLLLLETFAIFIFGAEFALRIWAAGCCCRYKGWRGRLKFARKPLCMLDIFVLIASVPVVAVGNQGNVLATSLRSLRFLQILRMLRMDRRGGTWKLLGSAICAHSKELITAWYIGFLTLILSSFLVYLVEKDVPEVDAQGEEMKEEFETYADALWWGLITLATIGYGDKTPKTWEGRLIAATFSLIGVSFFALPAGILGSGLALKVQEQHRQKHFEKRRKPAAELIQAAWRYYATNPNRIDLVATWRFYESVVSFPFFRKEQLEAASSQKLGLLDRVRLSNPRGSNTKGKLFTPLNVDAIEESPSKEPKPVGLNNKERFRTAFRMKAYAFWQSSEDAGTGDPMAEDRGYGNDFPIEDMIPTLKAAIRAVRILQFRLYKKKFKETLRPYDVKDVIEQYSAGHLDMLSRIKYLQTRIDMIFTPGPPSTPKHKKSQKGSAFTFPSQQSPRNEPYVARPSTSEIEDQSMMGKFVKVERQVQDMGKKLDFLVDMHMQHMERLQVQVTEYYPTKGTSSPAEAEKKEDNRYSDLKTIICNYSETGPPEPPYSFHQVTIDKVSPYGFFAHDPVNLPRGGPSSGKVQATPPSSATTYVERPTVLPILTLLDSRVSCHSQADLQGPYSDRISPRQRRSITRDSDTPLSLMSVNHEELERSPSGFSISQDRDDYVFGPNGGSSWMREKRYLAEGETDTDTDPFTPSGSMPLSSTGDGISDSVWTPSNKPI

SMILES	EC50 [1] [nM]	IC50 [2] [µM]	IC50 [3] [µM]	IC50 [4] [µM]	IC50 [5] [µM]	IC50 [6] [µM]	Seizure incidence (%) [7] [%]
Cc1c(NC(=O)CC2(C)CC2)n(C)c2cc(Nc3ccc(F)cc3)ccc12 [Compound 12]	800	20	13	11	15	37	–
Cc1cc(F)cnc1Nc1ccc2c(C)c(NC(=O)CC(C)(C)C)n(C)c2c1 [Compound 31]	–	> 50	> 50	> 50	> 50	> 50	16.7
